The text below walks through data of US20230330120A1, “COMPOSITION FOR PREVENTING HAIR LOSS OR PROMOTING HAIR REGROWTH” (LG HOUSEHOLD & HEALTH CARE LTD., priority 2020, published 2023).

Assay [1] has as its system human-derived dermal papilla cells (DPCs). Kind of assay: Proliferation of dermal papilla cells (CCK-8). In kind it is cell-based. Conditions: for activity at 2 µg/mL / activity at 20 µg/mL: read-out: Proliferation of dermal papilla cells (%). As to the method: The effect of promoting the proliferation of dermal papilla cells was investigated using human-derived dermal papilla cells (DPCs). The human-derived dermal papilla cells were purchased from PromoCell. The DPCs were cultured using a medium (follicle dermal papilla cell growth medium; PromoCell, Heidelberg, Germany) and a medium additive (supplement mix; PromoCell, Heidelberg, Germany) recommended by PromoCell under the condition of 37° C. and 5% CO2. The cultured DPCs were seeded onto a 96-well plate at 3,000 cells/well and then cultured for 24 hours under 0.1% serum condition. Then, the cultured cells were incubated for 1 day after treating with DMSO diluted with serum-free DMEM to 1:1000 (vehicle), 0.1 μg/mL minoxidil as a positive control group, or at 2 or 20 μg/mL valechlorine, tussilagone, periplocin, lysionotin, nitidine, lanosterol, engeletin, specnuezhenide, praeruptorin B, rotundic acid, sesamoside or polyphyllin VII. After the incubation, cell proliferation was evaluated by the CCK method. CCK-8 was treated to a medium at 1:10 and then incubated for 1 hour. 1 hour later, the absorbance of each well was measured at 450 nm. All experiments were repeated 3 times and the average of absorbance was calculated. The control group was set at 100%, and the results were represented as a percentage compared to the control group.

The test system of assay [2] is β-catenin. Description: Expression of β-catenin protein in dermal papilla cells (SDS-PAGE / anti-β-catenin antibody). In kind it is cell-based, human. Conditions: for activity at 2 µg/mL / activity at 20 µg/mL: Homo sapiens, 24 h, read-out: Expression level of β-catenin protein (%). The procedure:
Human dermal papilla cells were seeded onto a 6-well plate at 500,000 cells/well and then incubated for 1 day after treating with 2 or 20 μg/mL valechlorine, tussilagone, periplocin, lysionotin, nitidine, lanosterol, engeletin, specnuezhenide, praeruptorin B, rotundic acid, sesamoside or polyphyllin VII. After the incubation, the cells were lysed using an M-PER lysis buffer and a cell lysate of the same volume was loaded on SDS-PAGE gel. After transferring the cell lysate loaded on the SDS-PAGE gel to a nitrocellulose membrane, proteins were detected by attaching anti-β-catenin antibodies to the nitrocellulose membrane. GAPDH was used as a control for calibrating the quantity of proteins. The amount of β-catenin increased by the valechlorine, tussilagone, periplocin, lysionotin, nitidine, lanosterol, engeletin, specnuezhenide, praeruptorin B, rotundic acid, sesamoside or polyphyllin VII was investigated. The control group was set at 100%, and the results were represented as a percentage compared to the control group as shown in Table 5.

Assay [3] concerns β-catenin. The assay is described as above. In kind it is cell-based, human. Conditions: 0.5 μg/mL (positive control); control group = 100%.
[4] abbreviates: Homo sapiens, 24 h, 2 μg/mL, 1 day, control group = 100%.
The mark [5] stands for this setting: Homo sapiens, 24 h, 20 μg/mL, 1 day, control group = 100%.
The mark [6] stands for this setting: 2 μg/mL, 1 day, control group = 100%, GAPDH calibration.
Setting [7] is: 20 μg/mL, 1 day, control group = 100%, GAPDH calibration.

Read-outs that look alike come from different tables or passages of the source.

`CC(C)=CCC[C@@H](C)[C@H]1CC[C@@]2(C)C3=C(CC[C@]12C)[C@@]1(C)CC[C@H](O)C(C)(C)[C@@H]1CC3` [Lanosterol]: the activity at 2 µg/mL came to 143% in assay [1] (setting [4]) and 241% in assay [2] (setting [6]). Also, the activity at 20 µg/mL amounted to 189% in assay [1] (setting [5]) and 246% in assay [2] (setting [7]).
On to `COc1ccc(-c2cc(=O)c3c(O)c(OC)c(O)c(OC)c3o2)cc1` [Lysionotin], for which the activity at 2 µg/mL in assay [1] (setting [4]) was found to be 164%; in assay [2] (setting [6]) it was 210%. The activity at 20 µg/mL was 179% in assay [1] (setting [5]) and 232% in assay [2] (setting [7]).
For `Nc1cc(N2CCCCC2)nc(N)[n+]1[O-]` [Minoxidil, reference compound], in assay [1] (Homo sapiens, 24 h, 100 ng/ml (positive control), 1 day, control group = 100%), the activity at 0.1 µg/mL turned out to be 130%.
With `COc1cc2c[n+](C)c3c4cc5c(cc4ccc3c2cc1OC)OCO5` [Nitidine], the activity at 2 µg/mL in assay [1] (setting [4]) was 155%; in assay [2] (setting [6]) it was 220%. The activity at 20 µg/mL in assay [1] (setting [5]) worked out at 181%; in assay [2] (setting [7]), 262%.
Regarding `C/C=C(\C)C(=O)OC1c2c(ccc3ccc(=O)oc23)OC(C)(C)C1OC(=O)/C(C)=C/C` (stereo not drawn) [Praeruptorin B], the activity at 2 µg/mL in assay [1] (Homo sapiens, 24 h) stood at 144%; in assay [2] it was 211%. In addition, the activity at 20 µg/mL turned out to be 173% in assay [1] (Homo sapiens, 24 h) and 250% in assay [2].
Take `C[C@@H]1CC[C@]2(C(=O)O)CC[C@]3(C)C(=CC[C@@H]4[C@@]5(C)CC[C@H](O)[C@@](C)(CO)[C@@H]5CC[C@]43C)[C@@H]2[C@]1(C)O` [Rotundic acid]: the activity at 2 µg/mL in assay [1] (setting [4]) stood at 156%; in assay [2] (setting [6]), 211%. The activity at 20 µg/mL amounted to 183% in assay [1] (setting [5]) and 258% in assay [2] (setting [7]).
For `COC(=O)C1=CO[C@@H](O[C@@H]2O[C@H](CO)[C@@H](O)[C@H](O)[C@H]2O)[C@@H]2[C@@]3(C)O[C@H]3[C@@H](O)[C@]12O` [Sesamoside], in that order: 168%, 245%, 194% and 295%.
On the same counts, the results for `C/C=C1/[C@H](O[C@@H]2O[C@H](CO)[C@@H](O)[C@H](O)[C@H]2O)OC=C(C(=O)OC)[C@H]1CC(=O)OC[C@H]1O[C@@H](OCCc2ccc(O)cc2)[C@H](O)[C@@H](O)[C@@H]1O` [Specnuezhenide] are 150%, 216%, 170% and 289%.
On the same counts, the results for `C=C1[C@H](OC(=O)/C=C(\C)CC)C[C@@H](C(C)C)[C@@H]2[C@@H]([C@H](C)OC(C)=O)C(=O)C[C@@H]12` [Tussilagone] are 157%, 208%, 178% and 253%.
On to `CC(=O)OCC1=CO[C@@H](OC(=O)CC(C)C)[C@H]2C1=C[C@H](OC(=O)CC(C)C)[C@]2(O)CCl` [Valechlorine], for which, in assay [1] (Homo sapiens, 24 h), the activity at 2 µg/mL was found to be 146% and the activity at 20 µg/mL came out at 159%. Moreover, in assay [2], the activity at 2 µg/mL turned out to be 217% and the activity at 20 µg/mL was 234%.
With Engeletin, the “Proliferation of dermal papilla cells (%)” value was found to be 143.2% in assay [1] (2 μg/mL, 1 day, control group = 100%) and 188.1% in assay [1] (20 μg/mL, 1 day, control group = 100%). Besides, the “Expression level of β-catenin protein (%)” value in assay [2] (setting [6]) is on record as 231.1%; in assay [2] (setting [7]) it was 276.3%.

B1: Wnt3a: Wnt3a protein (positive control group) which binds directly to the receptor of Wnt/β-catenin (protein, UniProt P56704 19-352, looked up)
Protein Wnt-3a: SYPIWWSLAVGPQYSSLGSQPILCASIPGLVPKQLRFCRNYVEIMPSVAEGIKIGIQECQHQFRGRRWNCTTVHDSLAIFGPVLDKATRESAFVHAIASAGVAFAVTRSCAEGTAAICGCSSRHQGSPGKGWKWGGCSEDIEFGGMVSREFADARENRPDARSAMNRHNNEAGRQAIASHMHLKCKCHGLSGSCEVKTCWWSQPDFRAIGDFLKDKYDSASEMVVEKHRESRGWVETLRPRYTYFKVPTERDLVYYEASPNFCEPNPETGSFGTRDRTCNVSSHGIDGCDLLCCGRGHNARAERRREKCRCVFHWCCYVSCQECTRVYDVHTCK
B1: the “Expression level of β-catenin protein (%)” value in assay [3] is 208.8%.
